{
  "source": "patent US20120046258A1",
  "about": "“NOVEL CRYSTALLINE PHARMACEUTICAL PRODUCT” (GLAXO GROUP LIMITED, priority 2005, published 2012)",
  "test": "Anderson Cascade impaction analysis of dry powder blend in blister strip",
  "type": "physicochemical",
  "conditions": "0.8% w/w drug in milled lactose blend, 13 mg per blister",
  "description": "A blend was prepared containing 0.8% w/w 6α,9α-difluoro-17α-[(2-furanylcarbonyl)oxy]-11β-hydroxy-16α-methyl-3-oxo-androsta-1,4-diene-17β-carbothioic acid S-fluoromethyl ester, prepared as particles according to the invention, and 99.2% w/w milled lactose (wherein the mean particle size is of the range 60-90 μm, and not greater than 15% of particles have a MMD of less than 15 μm).\nThe above composition was blended for 10 minutes at 600 rpm in a 2.5 litre bowl QMM Micromixer. A peelable blister strip containing 14 blisters, each filled with 13 mg of the powder formulation described above was prepared.\nAnderson Cascade impaction analysis of this product was performed initially and after 1 month storage at 30° C. and 65% relative humidity as shown in Table 1 below.",
  "data": [
    {"smiles": "C[C@]12C[C@H](O)[C@@]3(F)C(C[C@H](F)C4=CC(=O)C=C[C@@]43C)C1C[C@](C)(OC(=O)c1ccco1)[C@@H]2C(=O)SCF", "note": "(some centres unmarked) [Micronised Drug, reference compound]", "values": [
      {"measurement": "Respirable fraction (% of Total Emitted Dose)", "setting": "1 month @ 30° C./65% Relative Humidity", "value": "25.1 % of Total Emitted Dose"},
      {"measurement": "Respirable fraction (% of Total Emitted Dose)", "setting": "Initial", "value": "26.6 % of Total Emitted Dose"}
    ]}
  ]
}
